Holding throughout (assay type): biochemical
In one test the target is T1, Caspase-9 (Homo sapiens, UniProt P55211).
T1 construct: purchased BioVision K159-100
T1 sequence (P55211 1-315 limits assumed): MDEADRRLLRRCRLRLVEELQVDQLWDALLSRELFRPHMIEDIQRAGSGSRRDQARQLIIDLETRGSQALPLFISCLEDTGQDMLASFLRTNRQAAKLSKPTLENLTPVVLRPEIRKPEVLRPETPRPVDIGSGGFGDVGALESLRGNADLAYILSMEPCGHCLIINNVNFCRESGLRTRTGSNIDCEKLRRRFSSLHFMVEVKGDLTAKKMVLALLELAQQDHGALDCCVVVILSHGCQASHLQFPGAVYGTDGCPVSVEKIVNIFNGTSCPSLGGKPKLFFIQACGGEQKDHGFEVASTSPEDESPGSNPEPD
T1 sequence (P55211 331-416 limits assumed): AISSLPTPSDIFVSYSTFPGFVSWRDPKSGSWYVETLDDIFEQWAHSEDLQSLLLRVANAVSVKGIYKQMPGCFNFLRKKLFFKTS
Put plainly: Caspase-9 inhibitor screening assay (BioVision kit, LEHD-AFC). Conditions: read-out: IC50 Casp9. The gist of the method:
(§1)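 Fluorometric read-out of free AFC released from the caspase-specific synthetic substrate. IC50 from concentration series, sometimes narrower.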

In the next test the target is T2, Caspase-2 (Homo sapiens, UniProt P42575).
T2 construct: mixing the compounds with the respective active caspases; purchased BioVision K152-100
T2 sequence (P42575 170-325 limits assumed): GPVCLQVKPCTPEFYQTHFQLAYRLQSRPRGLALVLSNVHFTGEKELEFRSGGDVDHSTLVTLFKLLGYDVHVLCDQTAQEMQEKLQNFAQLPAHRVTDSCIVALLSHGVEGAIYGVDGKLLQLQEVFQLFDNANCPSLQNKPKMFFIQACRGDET
T2 sequence (P42575 334-452 limits assumed): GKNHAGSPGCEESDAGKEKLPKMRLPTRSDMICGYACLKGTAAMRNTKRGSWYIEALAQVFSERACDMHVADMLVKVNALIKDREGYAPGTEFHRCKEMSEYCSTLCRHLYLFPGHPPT
Put plainly: Caspase-2 inhibitor screening assay (BioVision kit, VDVAD-AFC). To be noted: read-out: IC50 Casp2. The gist of the method: as §1

For the next test, the target named is T3, Caspase-8 (Homo sapiens, UniProt Q14790).
T3 construct: mixing the compounds with the respective active caspases; purchased BioVision K158-100
Put plainly: Caspase-8 inhibitor screening assay (BioVision kit, IETD-AFC). The procedure, abridged: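 Each caspase cleaved its own AFC-labelled peptide substrate, and released AFC was read by fluorescence. % inhibition came from RFU against an uninhibited control.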

Another test deals with T4, Caspase-3 (Homo sapiens, UniProt P42574).
T4 construct: mixing the compounds with the respective active caspases; purchased BioVision K153-100
T4 sequence (P42574 29-175 limits assumed): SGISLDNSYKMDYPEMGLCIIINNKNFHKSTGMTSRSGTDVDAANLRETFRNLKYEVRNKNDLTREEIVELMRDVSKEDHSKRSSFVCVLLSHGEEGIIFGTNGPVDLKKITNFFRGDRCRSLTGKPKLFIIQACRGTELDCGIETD
T4 sequence (P42574 176-277 limits assumed): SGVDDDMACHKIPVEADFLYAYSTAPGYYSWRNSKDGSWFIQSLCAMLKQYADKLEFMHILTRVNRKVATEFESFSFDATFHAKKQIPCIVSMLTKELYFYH
The experiment in a line: Caspase-3 inhibitor screening assay (BioVision kit, DEVD-AFC). To be noted: read-out: IC50 Casp3. The procedure, abridged:
as §1

Another test has as its target T5, Caspase-1 (Homo sapiens, UniProt P29466).
T5 construct: mixing the compounds with the respective active caspases; purchased BioVision K151-100
T5 sequence (P29466 120-297 limits assumed): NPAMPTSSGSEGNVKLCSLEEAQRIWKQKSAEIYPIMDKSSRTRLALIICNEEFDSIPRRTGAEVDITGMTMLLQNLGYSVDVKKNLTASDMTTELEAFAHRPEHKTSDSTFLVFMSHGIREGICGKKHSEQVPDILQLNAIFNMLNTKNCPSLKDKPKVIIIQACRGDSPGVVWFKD
T5 sequence (P29466 317-404 limits assumed): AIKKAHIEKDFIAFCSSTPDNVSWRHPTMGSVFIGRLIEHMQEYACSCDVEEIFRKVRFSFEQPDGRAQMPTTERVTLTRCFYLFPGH
Put plainly: Caspase-1 inhibitor screening assay (BioVision kit, YVAD-AFC). Conditions: read-out: IC50 Casp1. The procedure, abridged:
as §1

A further test addresses T6, Caspase-7 (Homo sapiens, UniProt P55210).
T6 construct: mixing the compounds with the respective active caspases; purchased BioVision K157-100
T6 sequence (P55210 24-198 limits assumed): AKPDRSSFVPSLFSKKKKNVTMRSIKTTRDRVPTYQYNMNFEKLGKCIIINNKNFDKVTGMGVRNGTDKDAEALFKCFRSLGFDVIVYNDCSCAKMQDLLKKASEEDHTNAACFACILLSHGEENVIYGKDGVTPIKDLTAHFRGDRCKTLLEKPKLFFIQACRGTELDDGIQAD
T6 sequence (P55210 207-303 limits assumed): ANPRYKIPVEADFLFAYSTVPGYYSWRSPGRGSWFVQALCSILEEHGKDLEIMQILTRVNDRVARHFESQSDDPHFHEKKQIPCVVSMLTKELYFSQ
Put plainly: Caspase-7 inhibitor screening assay (BioVision kit, DEVD-AFC). Conditions: read-out: IC50 Casp7. The procedure, abridged:
as §1

Molecules are shown by their SMILES. Like-named read-outs stand apart in the source and are kept apart here.

T3 sequence (Q14790 217-374 limits assumed): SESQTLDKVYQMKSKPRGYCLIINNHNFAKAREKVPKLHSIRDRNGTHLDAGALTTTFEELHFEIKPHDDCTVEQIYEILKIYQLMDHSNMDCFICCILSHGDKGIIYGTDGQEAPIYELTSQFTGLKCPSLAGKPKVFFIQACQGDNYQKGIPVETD
T3 sequence (Q14790 385-479 limits assumed): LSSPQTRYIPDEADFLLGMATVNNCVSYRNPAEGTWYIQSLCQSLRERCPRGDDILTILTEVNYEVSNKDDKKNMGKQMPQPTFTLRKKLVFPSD

On to `CCOC(=O)/C=C/[C@H](CC(=O)O)NC(=O)[C@@H](NC(=O)[C@H](CCC(=O)O)NC(=O)[C@@H](NC(=O)OCc1ccccc1)C(C)C)C(C)CC` (stereo partly drawn) [Compound 124, Z-Val-Glu-Ile-Asp-Ethyl Vinyl ester], for which the half-inhibitory concentration (IC50) at Caspase-9 is 7500 nM; at Caspase-2, 10000 nM; at Caspase-8 (read-out: IC50 Casp8), 190 nM; on Caspase-3, 580 nM; on Caspase-1 it was 780 nM; at Caspase-7, above 100000 nM.

Regarding `CCOC(=O)/C=C/[C@H](CC(=O)O)NC(=O)[C@@H](NC(=O)[C@H](CCC(=O)O)NC(=O)[C@@H](NC(=O)OCc1ccccc1)C(C)C)c1ccccc1` [Compound 126, Z-Val-Glu-Phg-Asp-Ethyl Vinyl ester], the IC50 was above 100000 nM on Caspase-9; above 100000 nM at Caspase-2; 80 nM on Caspase-8 (read-out: IC50 Casp8); 79 nM at Caspase-8 (read-out: potency (IC50) against caspase-8); 2780 nM on Caspase-3; 1000 nM at Caspase-1. Further, the IC50 on Caspase-7 is above 100000 nM.
